In assay [1] the target is T1, gp43exo− (bacteriophage T4 DNA polymerase) (Enterobacteria phage T4, UniProt P04415, D219A). Format: biochemical. Particulars: 50 μM dXTP 30 s, then 1000 μM dGTP.
Assay [2] has as its target T2, gp43 exo+ (bacteriophage T4 DNA polymerase) (Enterobacteria phage T4, UniProt P04415).
T2 construct: made in house
T2 sequence (P04415 1-898): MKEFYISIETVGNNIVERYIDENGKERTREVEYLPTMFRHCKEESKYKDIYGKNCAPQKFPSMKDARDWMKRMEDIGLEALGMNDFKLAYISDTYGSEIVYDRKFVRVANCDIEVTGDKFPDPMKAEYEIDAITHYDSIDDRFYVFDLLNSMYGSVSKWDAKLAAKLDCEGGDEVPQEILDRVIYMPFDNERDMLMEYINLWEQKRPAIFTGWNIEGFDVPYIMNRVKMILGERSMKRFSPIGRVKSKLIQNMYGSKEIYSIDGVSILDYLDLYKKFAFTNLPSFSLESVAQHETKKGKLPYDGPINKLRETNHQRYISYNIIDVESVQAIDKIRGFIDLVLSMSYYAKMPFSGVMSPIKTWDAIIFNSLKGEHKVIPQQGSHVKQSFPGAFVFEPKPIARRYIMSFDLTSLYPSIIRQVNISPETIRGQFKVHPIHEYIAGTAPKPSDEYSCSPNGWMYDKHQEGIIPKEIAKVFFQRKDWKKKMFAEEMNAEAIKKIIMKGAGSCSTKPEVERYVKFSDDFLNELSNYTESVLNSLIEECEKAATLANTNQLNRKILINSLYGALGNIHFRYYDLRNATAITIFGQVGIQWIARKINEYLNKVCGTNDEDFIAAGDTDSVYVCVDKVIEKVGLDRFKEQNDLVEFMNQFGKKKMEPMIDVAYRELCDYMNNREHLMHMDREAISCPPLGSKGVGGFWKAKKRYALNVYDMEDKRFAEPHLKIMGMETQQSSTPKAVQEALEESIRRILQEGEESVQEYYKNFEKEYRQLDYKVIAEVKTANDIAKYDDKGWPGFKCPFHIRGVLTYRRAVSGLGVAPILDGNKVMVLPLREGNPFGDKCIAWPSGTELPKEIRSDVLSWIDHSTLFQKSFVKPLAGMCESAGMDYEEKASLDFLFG
In words: Idle turnover measurements with KINSIM simulation. In kind it is biochemical. The protocol: DNA (13/20SP-mer or 13/20T-mer; 250 nM) was first preincubated with variable concentrations of 5-NITP (20-200 μM) or 5-PhITP (10-200 μM) in the presence of 30 μM dATP. Due to the nature of the DNA substrate (FIG. 1B), the insertion of dAMP opposite T at position 13 in the template maintains a usable primer template for the insertion of the nonnatural nucleotide opposite the abasic lesion (position 14). In all cases, the reaction was initiated through the addition of 1000 nM DNA gp43 exo^+. Five microliter aliquots of the reaction were quenched into tubes containing 5 μL of 200 mM EDTA at times ranging from 5 to 600 s. The quenched samples were processed as described above and product formation was analyzed using established protocols.
Simulations modeling the observed kinetic time courses for nucleotide insertion and excision were performed by mathematical analyses using KINSIM. A simplified mechanism depicted in FIG. 11 was employed that accounts for the kinetic parameters of interest. These minimally include KD values for each nucleotide, kpol values for their insertion, and kexo, which represents the hydrolytic rate constant. Both the starting reactant concentrations and rate constants were supplied for each step of the mechanism. In all cases, the rate constants were based upon either experimentally determined rate constants or published literature values. The simulated curves were then compared to those experimentally derived to judge how accurately each set of rate constants fit the experimental data. Adjustments to the rate constants were then made until the simulated time courses were nearly identical to the experimental time courses.
Idle turnover is a process in which the DNA polymerase incorporates a dNTP and then excises the inserted dNMP in the absence of the next required nucleotide triphosphate (FIG. 11). This activity provides a more accurate representation of in vivo conditions in which the polymerase should be bound and stalled at the sight of DNA damage. Idle turnover was quantified using a modified gel electrophoresis protocol that monitors the amount of extension (13-mer to 14-mer) and subsequent excision (14-mer to 13-mer) of the DNA as a function of time. All experiments were performed using single turnover reaction conditions to ensure that all DNA was bound with polymerase during the course of the reaction. Under these conditions, the rates in product formation reflect the kinetics of insertion and excision rather than enzyme dissociation from the mispair. In each experiment, the concentration of nonnatural nucleotide was varied from 20 to 200 μM. In addition, a low concentration of 30 μM dATP was used to allow for correct dNMP insertion at position 13-mer, which prevents complete degradation of DNA substrate.
Since single turnover reaction conditions were employed, kinetic steps reflecting enzyme dissociation and rebinding to product DNA are assumed to be negligible. Thus, the rate and amount of 14-mer produced are dependent upon four interrelated parameters. These include the kinetic dissociation constant (KD) for dXTP opposite the lesion (DNAn) (step 2), the rate constant for DNA extension (kpol) (step 3), the rate constant of exonuclease degradation (kexo) (step 5), and the kinetic dissociation constant (KD′) for dXTP opposite the next templating position (DNAn+1) (step 6). Although kpol is a complex function of kinetic rate constants, this value was simplified to combine the kinetic steps encompassing the conformational change prior to phosphoryl transfer, phosphoryl transfer, and the conformational change after phosphoryl transfer. Furthermore, translocation of the enzyme and pyrophosphate release (step 4) are assumed to be rapid.

Assay [3] addresses T1, gp43exo− (bacteriophage T4 DNA polymerase). Briefly: biochemical. In kind it is biochemical. As to conditions: for inhibition of replication beyond an abasic site: 20 μM analogue, 500 μM dNTPs.
Assay [4] shares this target. Format: biochemical. Particulars: 500 μM analogue; 10 μM dNTPs; unmodified 13/20-mer.
Assay [5] has the same target. In words: biochemical. As to conditions: for kpol: pseudo-first-order conditions.
Assay [6] deals with bacteriophage T4 polymerase. In words: Calculated discrimination, toxicity index and therapeutic index. In kind it is biochemical. Particulars: for toxicity index (abasic DNA) / toxicity index (unmodified DNA): (kpol dNTP/kexo dXTP)(dXTP/dNTP)/(4D); for discrimination (unmodified DNA): ratio of catalytic efficiencies opposite templating nucleobase; for discrimination (abasic DNA): ratio of catalytic efficiencies, dATP versus dXTP.

The target in assay [7] is T1, gp43exo− (bacteriophage T4 DNA polymerase). Briefly: biochemical. Format: biochemical.
Assay [8] addresses T2, gp43 exo+ (bacteriophage T4 DNA polymerase). As to conditions: paired opposite T; cited from earlier work.
Assay [9] has the same target. Briefly: Pre-steady-state exonuclease assay (excision of dXMP from primer). As to conditions: for kexo: single turnover, 1 μM gp43exo+. Format: biochemical.
For assay [10], the target named is T1, gp43exo− (bacteriophage T4 DNA polymerase). Particulars: previously demonstrated, cited from earlier work.
The target is the same in assay [11]. As to conditions: opposite an abasic site; previously determined values (Table 7 footnotes d, e, f not given); cited from earlier work.
The target is the same in assay [12]. As to conditions: cited from earlier work.
[13] abbreviates: idle turnover opposite an abasic site, computer simulation fit of time courses.

Structures are written as SMILES. Several values for one entry are separate records, joined by “and”; a condition that tells them apart may be missing. Equal entries are not always repeated. Where two headings read alike, the source gives them in different places.

With `O=P(O)(O)OP(=O)(O)OP(=O)(O)OC[C@H]1O[C@@H](n2ccc3cc(-c4ccccc4)ccc32)C[C@@H]1O` [5-PhITP, 5-Phenyl-indole-2′-Deoxyribofuranoside 5′-Triphosphate], the “extension beyond the mispair formed opposite an abasic site” value in [1] is given as “identical results are obtained”. Also, the “stability of incorporation opposite the abasic site (idle turnover)” value in assay [2] (100 μM nucleotide, compared with 100 μM 5-NITP) is given as “more stably incorporated opposite the abasic site”. In assay [2] (setting [13]), this molecule displayed a Kd of 20 ± 5 µM, a kexo of 1.0 ± 0.1 S^−1 and a kpol of 50 ± 10 S^−1. Also, in assay [3], the “inhibition of replication beyond an abasic site” value was “Identical results are obtained”; the IC50 is 10 µM and ~10 µM. Also, the “inhibition of normal DNA synthesis” value in assay [4] is given as “Nearly identical results are obtained”. The Kd in assay [5] (KD) was ~25 µM. Moreover, in assay [5] (Template A), the kpol/KD is on record as 4.0 × 10^3 M^−1S^−1 and the kpol was 0.12 ± 0.01 s⁻¹. In [5] (Template C), the kpol/KD was 6.8 × 10^3 M^−1S^−1 and the kpol turned out to be 0.19 ± 0.02 s⁻¹. For the same molecule, in assay [5] (Template G), the kpol/KD was 21.7 × 10^3 M^−1S^−1 and the kpol was 0.26 ± 0.02 s⁻¹. In [5] (Template T), the kpol/KD is 6.4 × 10^3 M^−1S^−1 and the kpol is 0.16 ± 0.01 s⁻¹. Besides, in assay [6], the “toxicity index (abasic DNA)” value was ~33; the “toxicity index (unmodified DNA)” value is on record as 0.01-0.05; the “discrimination (unmodified DNA)” value is recorded as 460-2500; the “discrimination (abasic DNA)” value was 11.4×10^−5 and 11.4 × 10^−4. For the same molecule, in [7], the “amplitude of the burst phase” value was determined as 75 nM; the burst amplitude is 240 ± 6 nM and 220 ± 3 nM and 220 nM; the kcat came to 2.2 s⁻¹; the kobs is 37.4 s⁻¹ and 38.4 s⁻¹ and ~38 s⁻¹ and 38.4 ± 2.1 s⁻¹ and 37.4 ± 1.4 s⁻¹. In addition, in assay [7], the “kobs calculated from Michaelis-Menten equation” value is 14 s⁻¹; the kpol came out at 53 ± 4 s⁻¹; the kpol/KD stood at 3.8e+06 M⁻¹ s⁻¹; the “observed rate constant of the burst phase (kobs)” value is 9.1 ± 2.1 s⁻¹ and 9 s⁻¹. Also, the Kd in assay [7] (KD) is ~10 µM.
For the molecule `Nc1ncnc2c1ncn2[C@H]1C[C@H](O)[C@@H](COP(=O)(O)O)O1` [dAMP], in assay [8], the “kexo, published value” is 2 s⁻¹. In [9] (abasic site versus T), the “rate constant for excision opposite the abasic site faster than opposite T” value is listed as ~40 fold. The kexo is 28.5±1.1 s^−1 and ≈ 28 s^−1 and 28.5+/−1.1 s^−1 in assay [9] (template abasic site); 0.8 ± 0.1 s⁻¹ in [9] (template nucleoside thymine).
Regarding `O=[N+]([O-])c1ccc2c(ccn2[C@H]2C[C@H](O)[C@@H](COP(=O)(O)OP(=O)(O)OP(=O)(O)O)O2)c1` [5-NITP, 5-nitro-1-indolyl-2′-deoxyribose-5′-triphosphate], the “extension beyond the mispair formed opposite an abasic site” value in assay [1] was “cannot elongate beyond the 14-mer product”. Besides, binding in assay [2] (dXTP opposite the next templating position, computer simulation fit) was characterised by a dissociation constant (Kd) of 10000 µM. In addition, in [2] (setting [13]), the Kd was 20 µM; the kexo is 10 S^−1 and 10 ± 2 S^−1; the kpol was 100 S^−1 and 100 ± 10 S^−1. In assay [3], the “inhibition of replication beyond an abasic site” value was “level of 14-mer product remains invariant”; the IC50 is 10 µM and ~10 µM. In addition, the dissociation constant Kd in assay [10] (independent of templating nucleobase) is ~20 µM. The kpol in assay [10] (opposite T) was ~0.9 s⁻¹. Moreover, in [11], the Kd is 18 µM and 10 µM; the kpol is 126 s⁻¹ and 126 ± 7 s⁻¹. This molecule also displayed a kexo in assay [9] (template abasic site) of 9.9 ± 0.8 s⁻¹. The molecule also showed a kexo in assay [9] (template nucleoside thymine) of 13.0 ± 1.4 s⁻¹. For the same molecule, in [12], the dissociation constant Kd was 18 µM and ~10 µM; the “catalytic efficiency for insertion opposite an abasic site relative to natural nucleotide (dAMP/dATP), greater” value is 1000 fold; the “incorporation opposite an abasic site favored compared to insertion opposite T (kpol)” value is on record as 140 fold; the kpol was 126 ± 6 s⁻¹. For the same molecule, the kpol/KD in assay [12] was 7e+06 M⁻¹ s⁻¹. Also, the “inhibition of normal DNA synthesis” value in assay [4] was “little effect”. For the same molecule, in assay [6], the therapeutic index is reported as ~128, the “toxicity index (abasic DNA)” value is recorded as ~6, the “toxicity index (unmodified DNA)” value is 0.047 and the “discrimination (unmodified DNA)” value was ~53. Moreover, in [6], the “discrimination (abasic DNA)” value is 6.1×10^−4.

As a reminder, the Kd is the equilibrium constant for the complex coming apart. A word on the IC50: it is the concentration that gives 50% inhibition. Read a high IC50 as a need for much substance. The term kcat denotes the maximal rate divided by the concentration of active sites.

(Values after patent publication US8114847B2, “Selective inhibitors of translesion DNA replication” (Case Western Reserve University, priority 2005, dated 2012).)
